Assay [1] deals with EDB-FN. The assay can be described thus: ZD2-Cy5.5 staining of frozen tissue sections, BC-1 blocking experiment. As to conditions: PaCa xenograft tissue sections, excess BC1 antibody. How it is done: For assessment of binding specificity of ZD2 peptide, flash frozen samples of tumor and normal tissues were collected from the euthanized tumor bearing mice and embedded in optimal cutting temperature media. The embedded samples were then immersed in liquid nitrogen for 5 minutes and transferred to −80° C. for storage before cryosectioning. Tissue sections were blocked for 1 hr in PBS containing 0.05% Tween-20 and 10% normal goat serum (Gibco, Gaithersburg, MD) and then stained with BC-1 primary monoclonal antibody (1:400) or ZD2-Cy5.5 (500 nM) at 4° C. overnight or room temperature incubation for 2.5 hr, respectively, and then washed with PBS-T buffer. Secondary Alexa Fluor 594 anti-rabbit was incubated with the BC-1 treated sections for 1 hour at room temperature (1:1000). For the blocking experiment, the tissue sections were first incubated with an excess of BC1 antibody at 4° C. overnight, then washed three times with PBS-T. The sections were then incubated with ZD2-Cy5.5 at room temperature incubation for 2.5 hr. The stained sections were washed with PBS-T buffer and images were acquired on an Olympus FV1000 (Waltham, MA) confocal microscope using pre-programmed emission and excitation filters for Cy5.5 (excitation: 635 nm; emission: 693 nm) and DAPI (excitation: 405 nm; emission: 461 nm), using a 10× objective lens.

Assay [2] addresses T1, EDB-FN (Homo sapiens, UniProt P02751). The assay can be described thus: Peptide binding study of OSCC spheroids with ZD2-Cy5.5. Format: cell-based. The note with it: ZD2-Cy5.5 125 nM, 15 minutes, ratio to Hoechst. How it is done:
Coverslip plates (4-well, Ibidi GmbH, Martinsried, Germany) were coated with Cultrex Basement Membrane Matrix (350 μL, Trevigen, Gaithersburg, MA, USA). For spheroid formation, 2×10^5 OSCC cells were seeded into prepared wells, incubated for 2 days, and photographed with the Moticam T2 camera (Motic, Hong Kong, China). For peptide binding, 1×10^5 cells were seeded into prepared wells and incubated for 2 days. Spheroids were stained with ZD2-Cy5.5 (125 nM), synthesized as previously described, and Hoechst (1:2000 dilution) (Invitrogen, Carlsbad, CA, USA) dyes for 15 minutes, washed 3× with DPBS (Thermo Fisher Scientific), and imaged with confocal laser scanning microscopy using the Olympus FV1000 system (Olympus Life Science, Tokyo, Japan).
Confocal fluorescence images were analyzed using FIJI. For quantification, images were thresholded to generate ROIs of both stains. For spheroid size, the average size of Hoechst ROIs was calculated. For staining intensity, the average signal intensities of ZD2-Cy5.5 and Hoechst ROIs were calculated, along with the ratio between the average intensities.

In assay [3] the target is T1, EDB-FN. Put plainly: ZD2-Cy5.5 staining of human tissue. Set-up: from tissue; host or cells: deparaffinized sections of human pancreatic cancer, PanIN and normal pancreas. As to conditions: 500 nM. The protocol: Tissue sections from PaCa patients (Case Comprehensive Cancer Center, Cleveland, OH) were deparaffinized with xylene, ethanol, and washed with water. Blocking was performed with 10% goat serum (Invitrogen, Carlsbad, CA) in PBS with 0.1% Tween 20 (PBS-T) for 30 minutes and incubated with 500 nM ZD2-Cy5.5 in PBS-T for 1 hour at 37° C. Following three washes with PBS-T, the sections were mounted using Fluoroshield mounting medium (Abcam, Cambridge, UK). Images were acquired on a FV1000 (Olympus, Waltham, MA) confocal microscope using pre-programmed emission and excitation filters for Cy5.5 (excitation: 635 nm; emission: 693 nm) and DAPI (excitation: 405 nm; emission: 461 nm), using a 10× objective lens. All tissue samples were imaged at the same laser power and sensor gain. Images were generated from single-channel grayscale images using FIJI software.

Assay [4] deals with TGF-β-treated and drug-resistant MCF7 and MDA-MB-468 cells. Put plainly: MK2206-HCl treatment, transwell invasion assay. The assay is classed as cell-based. The note with it: TGFβ-treated and drug-resistant cell derivatives; 2 μM (MCF7) or 4 μM (MDA-MB-468) for 2 days. The protocol: (§1) The invasive TGF-β-treated and drug-resistant MCF7 and MDA-MB-468 populations were treated with MK2206-HCl, a pan-AKT inhibitor, purchased from SelleckChem (Boston, MA). For this treatment, 8×10^5 cells were plated on 6-well plates. After 24 h of attachment, the cells were treated with MK2206-HCl for 2 days (2 μM dose for MCF7 cells and 4 μM dose for MDA-MB-468 cells). Cells treated with equivalent volume of DMSO were used as controls. After treatment, the cells were counted and an equal number of cells was plated on Matrigel and in transwell inserts for the invasion and 3D growth assays, as described in the relevant sections. The treated and non-treated cells were similarly counted and harvested for protein and RNA extraction for western blotting and qRT-PCR, respectively.
For the invasion assay, breast cancer cells were starved in serum-depleted media overnight. The next day, 1-2×10^5 cells were plated in transwell inserts (VWR, Radnor, PA) coated with 0.3 mg/mL Corning™ Matrigel™ Membrane Matrix (Corning, NY). After 1-2 days, the inserts were swabbed with Q-tips to remove the plated cells. The invading cells on the bottom of the inserts were fixed with 4% paraformaldehyde followed by staining with 0.1% crystal violet for 20 min. Excess stain was washed under tap water and images of the purple migrated cells were taken using the Moticam T2 camera with 10× objective lens.

In assay [5] the test system is EDB-FN. Put plainly: MK2206-HCl treatment, qRT-PCR of EDB-FN. The assay is classed as cell-based. The note with it: MDA-MB-468-DR cells, 4 μM MK2206-HCl for 2 days, vs DMSO-treated controls. How it is done: as §1
Total RNA was extracted from cells and tissues using the RNeasy Plus Mini Kit (Qiagen, Germantown, MD), according to manufacturer's instructions. RNA concentration was determined and 1 μg of RNA was used to set up reverse transcription using the miScript II RT Kit (Qiagen) and qPCR was performed using the SyBr Green PCR Master Mix (Applied Biosystems, CA). Gene expression was analyzed by the 2-ΔΔCt method with 18S or R-actin expression as the control.

The subject of assay [6] is phospho-AKT (T308 and S473). Put plainly: MK2206-HCl treatment, western blot of phospho-AKT. The assay is classed as cell-based. The note with it: invasive cell derivatives; 2 μM (MCF7) or 4 μM (MDA-MB-468) for 2 days. How it is done: as §1, with “respectively. Total cellular protein was extracted as previously described. […] et al., (2019) Bioconjug Chem 30, 907-919. Protein concentration was determined by Lowry assay and equal concentration of protein extracts (40 μg) was loaded on SDS-PAGE gels, transferred onto nitrocellulose membrane and immunoblotted with primary antibodies overnight. Anti-EDB-FN antibody (G4 clone) was used at 1:1000 dilution. […]” for “respectively.”
Background: Immunoblotting shows a protein as a band on a membrane.

The subject of assay [7] is DLD1-DR tumors. Put plainly: MK2206-HCl therapy of DLD1-DR tumor-bearing mice, tumor volume. Format: in vivo. The note with it: for average tumor volume: treated group. How it is done:
For therapeutic monitoring, 3-4×10^6 DLD1-DR cells suspended in Matrigel-PBS mixture (1:1) were subcutaneously injected in the left flanks of 10 nude mice (100 μL per mouse, mice labeled TM1-TM10). Tumor volumes were monitored and measured once a week using a Vernier caliper. When the average tumor volumes reached 100 mm^3, mice were randomized into 2 groups of 5: vehicle (mice #TM1, TM3, TM4, TM5, & TM10) and treated (mice #TM2, TM6, TM7, TM8, & TM9). Once a week, mice in the treated group received MK2206-HCl (100 mg/kg) and those in the vehicle group were injected with equivalent volume of DMSO, as described previously. Smith, J. A., L. J. Stallons, and R. G. Schnellmann, Am J Physiol Renal Physiol, 2014. 307(4): p. F435-44. After 3 weeks of treatment, tumor volumes increased over 1000 mm^3 and the experiment was terminated. The animals were then euthanized, and the tumors were harvested for post-mortem histology and IHC. Tumor volumes were calculated as [(Width)2×Length]/2.

Where a name gives a salt, the structure may show the parent alone. No end group written: not given here.

T1 sequence (P02751 32-2267 isoform P02751-13 limits assumed): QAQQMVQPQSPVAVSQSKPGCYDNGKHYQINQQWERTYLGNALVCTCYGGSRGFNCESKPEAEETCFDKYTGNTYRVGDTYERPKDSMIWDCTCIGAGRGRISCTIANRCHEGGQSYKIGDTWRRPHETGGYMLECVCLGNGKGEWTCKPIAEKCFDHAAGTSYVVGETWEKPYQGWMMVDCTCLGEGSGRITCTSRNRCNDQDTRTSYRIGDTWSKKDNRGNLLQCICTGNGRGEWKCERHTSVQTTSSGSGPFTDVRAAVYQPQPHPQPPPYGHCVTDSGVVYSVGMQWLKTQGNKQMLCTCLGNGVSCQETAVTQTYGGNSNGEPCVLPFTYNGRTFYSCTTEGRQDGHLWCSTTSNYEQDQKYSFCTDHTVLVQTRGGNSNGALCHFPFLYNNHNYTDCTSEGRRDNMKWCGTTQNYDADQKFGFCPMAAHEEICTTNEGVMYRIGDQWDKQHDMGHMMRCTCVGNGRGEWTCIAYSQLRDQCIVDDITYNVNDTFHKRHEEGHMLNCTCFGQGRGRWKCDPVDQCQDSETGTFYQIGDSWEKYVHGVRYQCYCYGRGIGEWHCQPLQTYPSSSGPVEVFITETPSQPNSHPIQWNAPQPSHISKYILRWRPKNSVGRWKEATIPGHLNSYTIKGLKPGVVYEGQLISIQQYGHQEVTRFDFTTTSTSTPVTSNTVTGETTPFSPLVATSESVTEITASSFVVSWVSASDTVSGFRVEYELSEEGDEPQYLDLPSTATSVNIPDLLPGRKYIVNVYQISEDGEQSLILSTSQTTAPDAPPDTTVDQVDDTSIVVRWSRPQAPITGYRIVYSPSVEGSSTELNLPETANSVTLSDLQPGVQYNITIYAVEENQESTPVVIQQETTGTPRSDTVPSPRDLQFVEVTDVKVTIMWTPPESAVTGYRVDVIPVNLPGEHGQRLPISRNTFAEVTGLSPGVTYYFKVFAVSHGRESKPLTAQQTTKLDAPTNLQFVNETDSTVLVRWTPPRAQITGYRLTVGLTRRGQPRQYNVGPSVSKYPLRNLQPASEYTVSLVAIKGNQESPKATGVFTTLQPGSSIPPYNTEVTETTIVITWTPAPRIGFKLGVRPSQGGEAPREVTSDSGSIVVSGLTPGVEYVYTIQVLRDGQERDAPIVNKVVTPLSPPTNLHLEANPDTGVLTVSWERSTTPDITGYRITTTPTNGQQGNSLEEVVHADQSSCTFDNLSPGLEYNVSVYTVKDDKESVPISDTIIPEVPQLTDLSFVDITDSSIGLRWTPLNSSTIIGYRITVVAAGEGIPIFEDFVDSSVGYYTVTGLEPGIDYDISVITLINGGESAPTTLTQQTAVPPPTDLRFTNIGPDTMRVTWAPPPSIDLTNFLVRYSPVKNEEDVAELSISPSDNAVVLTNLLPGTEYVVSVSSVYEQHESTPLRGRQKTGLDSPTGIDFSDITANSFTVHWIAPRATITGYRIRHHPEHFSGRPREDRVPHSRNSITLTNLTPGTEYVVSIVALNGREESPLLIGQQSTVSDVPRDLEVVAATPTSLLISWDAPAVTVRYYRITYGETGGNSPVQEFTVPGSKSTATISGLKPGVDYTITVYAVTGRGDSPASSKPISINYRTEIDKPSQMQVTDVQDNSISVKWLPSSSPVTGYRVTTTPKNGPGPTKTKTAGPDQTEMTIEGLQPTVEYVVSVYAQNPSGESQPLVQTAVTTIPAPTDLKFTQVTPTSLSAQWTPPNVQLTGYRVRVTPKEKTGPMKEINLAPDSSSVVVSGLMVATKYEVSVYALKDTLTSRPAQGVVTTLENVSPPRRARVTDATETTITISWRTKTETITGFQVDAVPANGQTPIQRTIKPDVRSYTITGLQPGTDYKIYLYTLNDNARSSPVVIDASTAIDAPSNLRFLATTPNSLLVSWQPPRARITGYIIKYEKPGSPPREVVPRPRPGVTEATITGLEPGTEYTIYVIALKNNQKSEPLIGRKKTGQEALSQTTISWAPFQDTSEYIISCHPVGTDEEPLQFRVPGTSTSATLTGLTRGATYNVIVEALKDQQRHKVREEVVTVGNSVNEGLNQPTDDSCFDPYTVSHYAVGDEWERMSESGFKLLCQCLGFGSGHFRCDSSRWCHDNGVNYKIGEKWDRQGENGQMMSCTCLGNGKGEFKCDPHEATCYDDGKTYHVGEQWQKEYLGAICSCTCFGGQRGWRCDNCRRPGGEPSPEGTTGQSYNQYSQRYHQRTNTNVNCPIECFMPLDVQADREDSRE

Turning to “ZD2-Cy5.5: EDB-FN-specific fluorescent peptide probe, ZD2 peptide labeled with Cy5.5 (TVRTSAD; also: labeled with Cy5.5, site and linker not given here)”, the “ZD2-Cy5.5 binding in the presence of the anti-EDB-FN antibody” value in assay [1] was “blocked”. Further, the “staining intensity of SCC4 relative to HSC3 spheroids” value in assay [2] is on record as “approximately 2 fold”. Moreover, the results for the ZD2-Cy5.5 binding result in assay [3] (human PaCa tissue), in assay [3] (normal pancreatic tissue) and in assay [3] (precancerous PanIN tissue) were “high”, “low” and “moderate”, respectively.
In the case of `NC1(c2ccc(-c3nc4ccn5c(=O)[nH]nc5c4cc3-c3ccccc3)cc2)CCC1` [MK2206-HCl], the invasive potential entry in assay [4] was “reduced the invasive potential”. Further, the “decrease in EDB-FN mRNA” value in assay [5] was 10-15%. Besides, the “inhibition of phospho-AKT (T308 and S473)” value in assay [6] is given as “robust inhibition”. In assay [7] (DLD1-DR tumors, MK2206-HCl 100 mg/kg once a week for 3 weeks), the “tumor response to therapy” value was “did not respond to therapy”. The average tumor volume was 110.5±11.97 mm^3 in assay [7] (week 1 (baseline), MK2206-HCl 100 mg/kg once a week) and 1249.7±199.3 mm^3 in assay [7] (week 4, after 3 weeks of MK2206-HCl 100 mg/kg once a week).

Values taken from patent US20240374763A1, “DIAGNOSIS AND MONITORING USING EXTRADOMAIN-B FIBRONECTIN TARGETED PROBES” (Case Western Reserve University, priority 2020, published 2024).
